Test results taken from patent US4443434A, “Antiulcer agent” (American Home Products Corporation, priority 1982, dated 1984).

Columns and labels:
gastric acid secretion [1] = details: on a molar basis; cited from earlier work
gastric blood flow = gastric blood flow by 86Rb distribution in rats; assay type: in vivo, rat; details: 1 mg/kg/hr i.v. infusion, 86RbCl at 30 min, mean ± S.E.M., 5 animals per group; saline 1.20 ± 0.05
Method: The effect of the octapeptide on gastric blood flow was established by the following procedure:
Rats weighing 280-350 gms were used. Rats were anesthatized with 50 mg/kg Nembutal and their left jugular veins cannulated. Somatostatin, 1 mg/kg/hr, was infused i.v. in one group of rats while a second group received a saline infusion. In a second experiment the octapeptide of the method of this invention, 1 mg/kg, or saline was injected s.c. Thirty minutes following the start of the experiment 20 μCi/rat of ^86 RbCl was injected i.v. The rats were killed 20 seconds later by injection of 0.5 ml Nembutal. The blood flow to the stomach was determined by counting ^86 Rb in the disected stomachs of the rats.

gastric acid secretion [2] = details: dose as high as 2 μm/kg, s.c.; cited from earlier work

## CSCCC(NC(=O)C(Cc1c[nH]c2ccccc12)NC(=O)CNC(=O)C(Cc1ccc(O)cc1)NC(=O)C(C)NC(=O)C(CCC(=O)O)NC(=O)C(CCC(=O)O)NC(=O)C(CCC(=O)O)NC(=O)[C@H](CCC(=O)O)NC(=O)[C@H](CCC(=O)O)NC(=O)[C@H](CC(C)C)NC(=O)[C@H](Cc1c[nH]c2ccccc12)NC(=O)[C@@H]1CCCN1C(=O)CNC(=O)[C@@H](N)CCC(=O)O)C(=O)NC(CC(=O)O)C(=O)NC(Cc1ccccc1)C(N)=O (stereo in doubt) [gastrin]
Gastric acid secretion [1]
  potency as stimulant of gastric acid secretion relative to histamine: 1,500 times

## C[C@H](N)C(=O)NCC(=O)N[C@H]1CSSC[C@@H](C(=O)O)NC(=O)[C@H](CO)NC(=O)[C@H]([C@@H](C)O)NC(=O)[C@H](Cc2ccccc2)NC(=O)[C@H]([C@@H](C)O)NC(=O)[C@H](CCCCN)NC(=O)[C@H](Cc2c[nH]c3ccccc23)NC(=O)[C@H](Cc2ccccc2)NC(=O)[C@H](Cc2ccccc2)NC(=O)[C@H](CC(N)=O)NC(=O)[C@H](CCCCN)NC1=O [somatostain, somatostatin]
Gastric blood flow
  % total 86Rb in stomach: 1.03 ± 0.05%

## D-Lys^6 -SRIF
Gastric acid secretion [2]
  effect on gastric acid secretion: no appreciable effect
